Source: patent US7928107B2, “Quinazolines useful as modulators of ion channels” (Vertex Pharmaceuticals Incorporated, priority 2004, dated 2011)
pIC50: −log10 of the molar value.

Molecular target: NaV 1.8 channel (Homo sapiens, UniProt Q9Y5Y9)
Test: Activity against NaV 1.8 channel (optical membrane potential assay)
Format: cell-based
Procedure: Compounds of the invention are useful as antagonists of voltage-gated sodium ion channels. Antagonist properties of test compounds were assessed as follows. Cells expressing the NaV of interest were placed into microtiter plates. After an incubation period, the cells were stained with fluorescent dyes sensitive to the transmembrane potential. The test compounds were added to the microtiter plate. The cells were stimulated with either a chemical or electrical means to evoke a NaV dependent membrane potential change from unblocked channels, which was detected and measured with trans-membrane potential-sensitive dyes. Antagonists were detected as a decreased membrane potential response to the stimulus. The optical membrane potential assay utilized voltage-sensitive FRET sensors described by Gonzalez and Tsien (See, Gonzalez, J. E. and R. Y. Tsien (1995) “Voltage sensing by fluorescence resonance energy transfer in single cells” Biophys J 69(4): 1272-80, and Gonzalez, J. E. and R. Y. Tsien (1997) “Improved indicators of cell membrane potential that use fluorescence resonance energy transfer” Chem Biol 4(4): 269-77) in combination with instrumentation for measuring fluorescence changes such as the Voltage/Ion Probe Reader (VIPR®) (See, Gonzalez, J. E., K. Oades, et al. (1999) “Cell-based assays and instrumentation for screening ion-channel targets” Drug Discov Today 4(9): 431-439).
24 hours before the assay on VIPR, CHO cells endogenously expressing a NaV1.2 type voltage-gated NaV are seeded in 96-well poly-lysine coated plates at 60,000 cells per well. Other subtypes are performed in an analogous mode in a cell line expressing the NaV of interest. • 1) On the day of the assay, medium is aspirated and cells are washed twice with 225 μL of Bath Solution #2 (BS#2). • 2) A 15 uM CC2-DMPE solution is prepared by mixing 5 mM coumarin stock solution with 10% Pluronic 127 1:1 and then dissolving the mix in the appropriate volume of BS#2. • 3) After bath solution is removed from the 96-well plates, the cells are loaded with 80 μL of the CC2-DMPE solution. Plates are incubated in the dark for 30 minutes at room temperature. • 4) While the cells are being stained with coumarin, a […] solution in BS#2 is prepared. In addition to DiSBAC2(3), this solution should contain 0.75 mM ABSCl and […] (prepared from 10 mM EtOH stock, Sigma #V-5754). • 5) After 30 minutes, CC2-DMPE is removed and the cells are washed twice with 225 μL of BS#2. As before, the residual volume should be 40 μL. • 6) Upon removing the bath, the cells are loaded with 80 μL of the DiSBAC2(3) solution, after which test compound, dissolved in DMSO, is added to achieve the desired test concentration to each well from the drug addition plate and mixed thoroughly. The volume in the well should be roughly 121 μL. The cells are then incubated for 20-30 minutes. • 7) Once the incubation is complete, the cells are ready to be assayed on VIPR® with a sodium add back protocol. 120 μL of Bath solution #1 is added to stimulate the NaV dependent depolarization. […] was used as an antagonist positive control for block of the NaV channel.
Data are analyzed and reported as normalized ratios of background-subtracted emission intensities measured in the 460 nm and 580 nm channels. Background intensities are then subtracted from each assay channel. Background intensities are obtained by measuring the emission intensities during the same time periods from identically treated assay wells in which there are no cells. The response as a function of time is then reported as the ratios obtained using the following formula: […]
The data is further reduced by calculating the initial (Ri) and final (Rf) ratios. These are the average ratio values during part or all of the pre-stimulation period, and during sample points during the stimulation period. The response to the stimulus R=Rf/Ri is then calculated. […]

NaV 1.8 channel, sequence (Q9Y5Y9 whole entry): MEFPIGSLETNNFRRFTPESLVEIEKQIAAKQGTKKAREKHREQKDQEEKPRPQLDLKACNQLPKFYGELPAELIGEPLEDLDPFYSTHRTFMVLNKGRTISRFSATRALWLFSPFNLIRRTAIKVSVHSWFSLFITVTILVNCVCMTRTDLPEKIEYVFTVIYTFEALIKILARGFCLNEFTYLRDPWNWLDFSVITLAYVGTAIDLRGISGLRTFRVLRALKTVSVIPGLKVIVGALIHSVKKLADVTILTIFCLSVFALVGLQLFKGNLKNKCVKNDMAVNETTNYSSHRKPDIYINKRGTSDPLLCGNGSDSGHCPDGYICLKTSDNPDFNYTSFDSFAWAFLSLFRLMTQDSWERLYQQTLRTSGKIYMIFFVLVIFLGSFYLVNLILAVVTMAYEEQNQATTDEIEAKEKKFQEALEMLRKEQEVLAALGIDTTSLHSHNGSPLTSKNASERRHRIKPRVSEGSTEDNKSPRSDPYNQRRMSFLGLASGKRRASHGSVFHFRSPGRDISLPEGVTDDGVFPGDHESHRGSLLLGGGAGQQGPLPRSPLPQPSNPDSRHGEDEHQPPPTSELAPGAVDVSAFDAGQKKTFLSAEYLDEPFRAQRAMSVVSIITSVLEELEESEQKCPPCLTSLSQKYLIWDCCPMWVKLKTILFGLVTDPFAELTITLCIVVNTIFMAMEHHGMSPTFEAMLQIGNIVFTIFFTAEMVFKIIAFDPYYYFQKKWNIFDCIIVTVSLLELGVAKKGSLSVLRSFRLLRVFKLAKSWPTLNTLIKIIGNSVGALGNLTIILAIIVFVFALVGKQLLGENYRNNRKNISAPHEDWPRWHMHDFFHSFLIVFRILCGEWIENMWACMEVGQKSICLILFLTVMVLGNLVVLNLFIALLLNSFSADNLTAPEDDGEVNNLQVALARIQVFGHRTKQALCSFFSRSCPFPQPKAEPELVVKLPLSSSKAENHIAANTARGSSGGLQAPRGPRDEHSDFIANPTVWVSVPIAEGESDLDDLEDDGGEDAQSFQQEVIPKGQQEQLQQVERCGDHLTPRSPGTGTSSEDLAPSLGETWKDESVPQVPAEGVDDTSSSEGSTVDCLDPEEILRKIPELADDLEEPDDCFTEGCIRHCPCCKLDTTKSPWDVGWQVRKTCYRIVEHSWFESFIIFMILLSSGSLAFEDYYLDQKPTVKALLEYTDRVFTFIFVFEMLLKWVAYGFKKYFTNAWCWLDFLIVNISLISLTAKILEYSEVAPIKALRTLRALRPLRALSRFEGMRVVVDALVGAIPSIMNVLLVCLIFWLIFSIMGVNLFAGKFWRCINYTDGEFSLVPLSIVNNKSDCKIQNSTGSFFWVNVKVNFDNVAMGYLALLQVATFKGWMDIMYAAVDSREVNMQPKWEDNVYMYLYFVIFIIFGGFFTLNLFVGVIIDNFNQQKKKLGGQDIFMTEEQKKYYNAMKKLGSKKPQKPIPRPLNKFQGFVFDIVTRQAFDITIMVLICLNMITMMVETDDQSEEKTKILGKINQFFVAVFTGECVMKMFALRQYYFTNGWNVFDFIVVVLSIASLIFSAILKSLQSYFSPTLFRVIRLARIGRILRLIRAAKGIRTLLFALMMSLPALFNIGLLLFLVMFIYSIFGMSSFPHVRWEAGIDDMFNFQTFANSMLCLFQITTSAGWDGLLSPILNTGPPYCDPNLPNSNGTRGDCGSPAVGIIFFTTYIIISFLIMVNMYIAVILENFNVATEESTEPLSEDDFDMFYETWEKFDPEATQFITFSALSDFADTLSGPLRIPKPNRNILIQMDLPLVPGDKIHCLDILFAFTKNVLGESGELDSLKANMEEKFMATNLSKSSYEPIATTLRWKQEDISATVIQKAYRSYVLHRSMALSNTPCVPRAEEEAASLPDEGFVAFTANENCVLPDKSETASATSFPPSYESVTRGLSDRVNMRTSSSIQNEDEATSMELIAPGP

Row | Structure (SMILES) | pIC50
1 | CCC(C)(O)CC(=O)N1CCN(c2nc(-c3ccccc3O)nc3cc(C)ccc23)CC1 (stereo not drawn) [Example 181] | < 5.00
2 | Cc1ccc2c(N3CC[C@@H](NC(=O)c4cccnc4)C3)nc(-c3c(O)cccc3F)nc2c1 [Example 352, N—((R)-1-(2-(2-Fluoro-6-hydroxyphenyl)-7-methylquinazolin-4-yl)pyrrolidin-3-yl)nicotinamide] | < 5.00
3 | C#CC(O)C(=O)N1CCN(c2nc(-c3ccccc3O)nc3cc(C)ccc23)CC1 (stereo not drawn) [Example 158, 2-Hydroxy-1-(4-(2-(2-hydroxyphenyl)-7-methylquinazolin-4-yl)piperazin-1-yl)but-3-yn-1-one] | < 5.00
4 | Cc1ccc2c(N3CCC(NC(=O)OCc4cccnc4)CC3)nc(-c3ccccc3O)nc2c1 [Example 227, (Pyridin-3-yl)methyl 1-(2-(2-hydroxyphenyl)-7-methylquinazolin-4-yl)piperidin-4-ylcarbamate] | < 5.00
5 | Cc1ccc2c(N3CCC(NC(=O)C(O)CC(C)C)CC3)nc(-c3ccccc3O)nc2c1 (stereo not drawn) [Example 265] | < 5.00
6 | Cc1ccc2c(N3CC[C@@H](NC(=O)c4cccc(N(C)C)c4)C3)nc(-c3ccccc3O)nc2c1 [Example 342, 3-(Dimethylamino)-N—((R)-1-(2-(2-hydroxyphenyl)-7-methylquinazolin-4-yl)pyrrolidin-3-yl)benzamide] | < 5.00
7 | Cc1ccc2c(N3CCC(CNC(=O)[C@H](O)C(C)C)CC3)nc(-c3ccccc3O)nc2c1 [Example 269] | < 5.00
8 | O=C(N[C@@H]1CCN(c2nc(-c3ccccc3O)nc3ccc(F)cc23)C1)c1cccnc1 [Example 349, N—((R)-1-(6-Fluoro-2-(2-hydroxyphenyl)quinazolin-4-yl)pyrrolidin-3-yl)nicotinamide] | < 5.00
9 | CCC(C)(O)C(=O)NC1CCN(c2nc(-c3ccccc3O)nc3cc(C)ccc23)CC1 (stereo not drawn) [Example 248, 2-Hydroxy-N-(1-(2-(2-hydroxyphenyl)-7-methylquinazolin-4-yl)piperidin-4-yl)-2-methylbutanamide] | 5.00 to 5.70
10 | Cc1ccc2c(N3CCCC(CNC(=O)C4CC4)C3)nc(-c3ccccc3O)nc2c1 (stereo not drawn) [Example 212, N—((1-(2-(2-Hydroxyphenyl)-7-methylquinazolin-4-yl)piperidin-3-yl)methyl)cyclopropanecarboxamide] | < 5.00
11 | Cc1ccc2c(N3CC[C@@H](NC(=O)C(O)c4ccc(F)cc4)C3)nc(-c3c(O)cccc3F)nc2c1 (stereo partly drawn) [Example 359, N—((R)-1-(2-(2-Fluoro-6-hydroxyphenyl)-7-methylquinazolin-4-yl)pyrrolidin-3-yl)-2-(4-fluorophenyl)-2-hydroxyacetamide] | < 5.00
12 | Cc1ccc2c(N3CC[C@H](CNC(=O)OCc4ccccc4)C3)nc(-c3ccccc3O)nc2c1 [Example 362, Benzyl ((R)-1-(2-(2-hydroxyphenyl)-7-methylquinazolin-4-yl)pyrrolidin-3-yl)methylcarbamate] | < 5.00
13 | Cc1ccc2c(N3CC[C@H](CNC(=O)O[C@H]4CCOC4)C3)nc(-c3ccccc3O)nc2c1 [Example 307, (S)-Tetrahydrofuran-3-yl ((R)-1-(2-(2-hydroxyphenyl)-7-methylquinazolin-4-yl)pyrrolidin-3-yl)methylcarbamate] | < 5.00
14 | Cc1ccc2c(N3CC[C@@H](NC(=O)CCN4CCCCC4)C3)nc(-c3ccccc3O)nc2c1 [Example 324] | < 5.00
15 | Cc1ccc2c(N3CC[C@@H](NC(=O)CCC4CCCC4)C3)nc(-c3ccccc3O)nc2c1 [Example 323, (R)-3-Cyclopentyl-N-{1-[2-(2-hydroxy-phenyl)-7-methyl-quinazolin-4-yl]-pyrrolidin-3-yl}-propionamide] | < 5.00
16 | O=C(N[C@@H]1CCN(c2nc(-c3ccccc3O)nc3ccc(F)cc23)C1)c1ccncc1 [Example 347, N—((R)-1-(6-Fluoro-2-(2-hydroxyphenyl)quinazolin-4-yl)pyrrolidin-3-yl)isonicotinamide] | < 5.00
17 | Cc1ccc2c(N3CCC(NC(=O)[C@H]4CCCO4)CC3)nc(-c3c(C)cccc3O)nc2c1 [Example 218, (2R)-Tetrahydro-N-(1-(2-(2-hydroxy-6-methylphenyl)-7-methylquinazolin-4-yl)piperidin-4-yl)furan-2-carboxamide] | 5.00 to 5.70
18 | Cc1ccc2c(N3CCC[C@@H](CNC(=O)O[C@H]4CCOC4)C3)nc(-c3c(O)cccc3F)nc2c1 [Example 231, (S)-Tetrahydrofuran-3-yl ((S)-1-(2-(2-fluoro-6-hydroxyphenyl)-7-methylquinazolin-4-yl)piperidin-3-yl)methylcarbamate] | 5.00 to 5.70
19 | CNCC(=O)N(C)CC(=O)O[C@H](CC(C)C)C(=O)N1CCN(c2nc(-c3ccccc3O)nc3cc(C)ccc23)CC1 [Example 169, (R)-[Methyl-(2-methylamino-acetyl)-amino]-acetic acid 1-{4-[2-(2-hydroxy-phenyl)-7-methyl-quinazolin-4-yl]-piperazine-1-carbonyl}-3-methyl-butyl ester] | < 5.00
20 | Cc1ccc2c(N3CCN(C(=O)[C@@H](O)C(C)(C)C)CC3)nc(-c3c(O)cccc3F)nc2c1 [Example 138, (S)-1-(4-(2-(2-Fluoro-6-hydroxyphenyl)-7-methylquinazolin-4-yl)piperazin-1-yl)-2-hydroxy-3,3-dimethylbutan-1-one] | < 5.00

More lines, now with the values ahead:

Row | pIC50 | Structure (SMILES)
21 | 5.00 to 5.70 | Cc1ccc2c(N3CCN(C(=O)OCc4cccnc4)CC3)nc(-c3c(O)cccc3F)nc2c1 [Example 156, (Pyridin-3-yl)methyl 4-(2-(2-fluoro-6-hydroxyphenyl)-7-methylquinazolin-4-yl)piperazine-1-carboxylate]
22 | > 5.70 | Cc1ccc2c(N3CC[C@@H](CNC(=O)C4CC4)C3)nc(-c3ccccc3O)nc2c1 [Example 311, N—(((S)-1-(2-(2-Hydroxyphenyl)-7-methylquinazolin-4-yl)pyrrolidin-3-yl)methyl)cyclopropanecarboxamide]
23 | 5.00 to 5.70 | Cc1ccc2c(N3CCN(C(=O)C(C)(C)O)CC3)nc(-c3ccccc3O)nc2c1 [Example 108, 2-Hydroxy-1-(4-(2-(2-hydroxyphenyl)-7-methylquinazolin-4-yl)piperazin-1-yl)-2-methylpropan-1-one]
24 | 5.00 to 5.70 | Cc1ccc2c(N3CCCC(C(=O)NCC4CCCO4)C3)nc(-c3ccccc3O)nc2c1 (stereo not drawn) [Example 230, N-((Tetrahydrofuran-2-yl)methyl)-1-(2-(2-hydroxyphenyl)-7-methylquinazolin-4-yl)piperidine-3-carboxamide]
25 | 5.00 to 5.70 | CCCC(O)C(=O)N1CCN(c2nc(-c3ccccc3O)nc3cc(C)ccc23)CC1 (stereo not drawn) [Example 134, 2-Hydroxy-1-(4-(2-(2-hydroxyphenyl)-7-methylquinazolin-4-yl)piperazin-1-yl)pentan-1-one]
26 | 5.00 to 5.70 | Cc1ccc2c(N3CCC(CNC(=O)C(O)C(C)C)CC3)nc(-c3ccccc3O)nc2c1 (stereo not drawn) [Example 266]
27 | 5.00 to 5.70 | Cc1ccc2c(N3CCN(C(=O)CC4CCOCC4)CC3)nc(-c3ccccc3O)nc2c1 [Example 105]
28 | 5.00 to 5.70 | Cc1ccc2c(N3CCN(C(=O)OCc4cccnc4)CC3)nc(-c3ccccc3O)nc2c1 [Example 132, (Pyridin-3-yl)methyl 4-(2-(2-hydroxyphenyl)-7-methylquinazolin-4-yl)piperazine-1-carboxylate]
29 | > 5.70 | Cc1ccc2c(N3CCC(NC(=O)OC(C)(C)C)CC3)nc(-c3ccccc3O)nc2c1 [Example 259, {1-[2-(2-Hydroxy-phenyl)-7-methyl-quinazolin-4-yl]-piperidin-4-yl}-carbamic acid tert-butyl ester]
30 | > 5.70 | Cc1ccc2c(N3CC[C@@H](CNC(=O)OC(C)C)C3)nc(-c3c(O)cccc3F)nc2c1 [Example 371, Isopropyl ((S)-1-(2-(2-fluoro-6-hydroxyphenyl)-7-methylquinazolin-4-yl)pyrrolidin-3-yl)methylcarbamate]
